Type in all cases: in vivo, albino male rats
In assay [1] the test system is insulin. Kind of assay: Nembutal/arginine rat test, blood radioimmunoassayed for insulin. As for the experimental part:
(§1) Nembutal (50 mg/kg) was injected intraperitoneally into each rat. Fifteen minutes later a subcutaneous injection of the test compound, somatostatin (200 μg/kg) and physiological saline (control) was administered separately to each of the three groups of rats. Ten minutes later 0.5 milliliters of arginine (300 mg/ml, pH 7.2) was injected into the rats heart. The rats were decapitated five minutes later and their blood was collected in Trasylol -EDTA. Aliquot samples were radioimmunoassayed for growth hormone, glucagon and insulin. The cyclic heptadecapeptide of this invention, with Trp in the L-configuration and in the form of the C-terminal carboxylic acid, selected as representative of the group of compounds disclosed for test purposes, was employed in two additional distinct test procedures at about 5,000 μg/kg dose levels.

The test system of assay [2] is growth hormone. Description: Nembutal/arginine rat test, blood radioimmunoassayed for growth hormone. As for the experimental part:
as §1

The subject of assay [3] is glucagon. Description: Nembutal/arginine rat test, blood radioimmunoassayed for glucagon. As for the experimental part: as §1

Regarding `C[C@H](NC(=O)[C@H](Cc1ccccc1)NC(=O)[C@H](Cc1ccccc1)NC(=O)[C@@H](N)Cc1ccccc1)C(=O)NCC(=O)N[C@H]1CSSC[C@@H](C(=O)O)NC(=O)[C@H](CO)NC(=O)[C@H]([C@@H](C)O)NC(=O)[C@H](Cc2ccccc2)NC(=O)[C@H]([C@@H](C)O)NC(=O)[C@H](CCCCN)NC(=O)[C@H](Cc2c[nH]c3ccccc23)NC(=O)[C@H](Cc2ccccc2)NC(=O)[C@H](Cc2ccccc2)NC(=O)[C@H](CC(N)=O)NC(=O)[C@H](CCCCN)NC1=O` [Example 3, L-phenylalanyl-L-phenylalanyl-L-phenylalanyl-L-alanylglycyl-L-cysteinyl-L- lysyl-L-asparaginyl-L-phenylalanyl-L-phenylalanyl-L-tryptophyl-L-lysyl-L-threonyl-L-phenylalanyl-L-threonyl-L-seryl-L-cysteine, (6→17) triacetate], the Insulin amounted to 204±18 μU/ml in assay [1] (dose 1,000 μg/kg subcutaneous, arginine-stimulated rats, control 243±20, * Not Significant); 165±16 μU/ml in assay [1] (dose 4,660 μg/kg, third test, control 176±1, * Not Significant); 202±37 μU/ml in assay [1] (dose 5,000 μg/kg, second test, control 283±37, * Not Significant). Besides, the GH in assay [2] (dose 1,000 μg/kg subcutaneous, Nembutal 50 mg/kg i.p., arginine intracardiac 10 min after dose, blood 5 min later, control 282±31) was found to be 124 ± 11 ng/mL; in assay [2] (dose 4,660 μg/kg, third test, control 202±26), 97 ± 7 ng/mL; in assay [2] (dose 5,000 μg/kg, second test, control 126±25) it was 27 ± 2 ng/mL. Moreover, the Glucagon in assay [3] (dose 1,000 μg/kg subcutaneous, arginine-stimulated rats, control 17.1±4.8) came to 0.6 ± 0.2 pg/mL; in assay [3] (dose 4,660 μg/kg, third test, control 3.7±1.3, * Not Significant), 1.1 ± 0.5 pg/mL; in assay [3] (dose 5,000 μg/kg, second test, control 14.0±3) it was 6.5 ± 2.3 pg/mL.

In the case of `C[C@H](N)C(=O)NCC(=O)N[C@H]1CSSC[C@@H](C(=O)O)NC(=O)[C@H](CO)NC(=O)[C@H]([C@@H](C)O)NC(=O)[C@H](Cc2ccccc2)NC(=O)[C@H]([C@@H](C)O)NC(=O)[C@H](CCCCN)NC(=O)[C@H](Cc2c[nH]c3ccccc23)NC(=O)[C@H](Cc2ccccc2)NC(=O)[C@H](Cc2ccccc2)NC(=O)[C@H](CC(N)=O)NC(=O)[C@H](CCCCN)NC1=O` [SRIF, somatostatin], in assay [1] (dose 200 μg/kg subcutaneous, arginine-stimulated rats, control 243±20), the Insulin is given as 136±12 μU/ml. In assay [2] (dose 200 μg/kg subcutaneous, arginine-stimulated rats, control 282±31), this compound gave a GH of 117 ± 6 ng/mL. In assay [3] (dose 200 μg/kg subcutaneous, arginine-stimulated rats, control 17.1±4.8), this compound registered a Glucagon of 2.0 ± 1.4 pg/mL.

The values are drawn from patent publication US3991041A, “(Phe3 -Ala)1 -somatostatin” (American Home Products Corporation, priority 1975, dated 1976).
